Where two headings read alike, the source gives them in different places.
Columns and labels:
[1] = tested on: A375 melanoma cell line (B-Raf V600E); assay: A375 Cellular Proliferation Assay (A375 CP); assay type: cell-based; details: Homo sapiens
Experimental: A375-luc cells engineered to express luciferase are plated to 384-well white clear bottom plates as 1,500 cells/50 μl/well in DMEM containing 10% FBS. Compounds of the invention dissolved in 100% DMSO at appropriate concentrations are transferred to the cells by a robotic Pin Tool (100 nl). The cells are incubated for 2 days at […], then 25 μl of BrightGlo™ is added to each well and the plates are read by luminescence.

p38α MAP Kinase = assay: A549 p38α MAP Kinase Bright-Glo Reporter Gene Assay; assay type: cell-based; details: Homo sapiens, IL-1 beta stimulated, IL-8 promoter luciferase reporter, read-out: A549 p38 RGA IC50
Experimental: A549 cells were stably-transfected with the IL-8 promoter driven reporter, pGL3-IL8-Luc. The cells were plated at 4×10^5/ml into 384-well solid white plates (40 ul/well, 5% CD-FBS, 1×P/S, DMEM) and were incubated overnight (18-20 hours) at 37° C. Test compounds were serially diluted in DMSO, then 50 nl of test solution was added to the incubation (final DMSO concentration of 0.1%). After incubating with test compound for 30 min, cells were stimulated with 1 ng/ml IL-1 beta (10 ul of 5 ng/ml solution per well). Bright-Glo (25 ul/well) was added to measure luciferase expression after 7-8 hours of stimulation.

[2] = Liver Microsomal Clearance Assay (human); assay type: in vitro ADME; details: extraction ratio, human liver microsomes, 1 μM compound
Experimental: (§1) The in vitro microsomal clearance assay is designed to assess potential risks associated with hepatic metabolic stability of compounds. The test compound (1 μM) was incubated with liver microsomes (0.5 mg/mL) from different species (mouse, rat, monkey, dog and human) and NADPH (1 mM) in 100 mM potassium phosphate buffer at 37° C. At specific reaction time points (0, 5, 10 and 30 minutes), reaction aliquots were removed and reactions were terminated by addition of ice cold acetonitrile containing mass spectrometry internal standard. The samples were centrifuged and the supernatants were analyzed by LC-MS/MS. In vitro metabolic half-life (t1/2, min) and intrinsic clearance (CLint, μL/min/mg) are based on the rate and extent of metabolism of the test compound as determined by the disappearance of the parent compound from the reaction mixture. These values may be scaled to predict hepatic metabolic clearance rate (CLh, mL/min/kg) and extraction ratio (ER, expressed as a ratio of the predicted hepatic metabolic clearance to hepatic blood flow in that species). In general, compounds with high predictedCLint or ER in vitro are considered to be at high risk for exposure-limiting metabolism in vivo.

[3] = Liver Microsomal Clearance Assay (mouse); assay type: in vitro ADME; details: extraction ratio, mouse liver microsomes, 1 μM compound
Experimental: as §1

SW620 cells = assay: SW620 Cell Viability Assay (Cell Titer Glo); assay type: cell-based; details: 10 to 0.002 μM, no MEK inhibitor
Experimental: The present invention also includes combinations of the BRaf inhibitors disclosed in this invention with other agents. In particular, the present invention provides for combinations with MEK1/2 inhibitors. FIG. 1 illustrates that the addition of a MEK small molecule inhibitor can reverse the induced ERK signaling, cell growth and transformation caused by a Raf small molecule inhibitor.
SW620 cells were seeded in 1640 RPMI+10% FBS at a density of 1500 cells per 96-well in black walled, clear bottom tissue culture treated plates. Test compounds were serially diluted in DMSO then added to the cells (final DMSO concentration of 0.1%) and incubated at 37° C. and 5% CO2 for 4 days. To measure cell viability, cell plates were brought to room temperature, culture media was removed, and 200 μl of Cell Titer-Glo reagent (Promega, kit components mixed as per the manufacturer's protocol then diluted 1:2 with growth media) was added to each well. Plates were shaken for 5 minutes, then incubated at room temperature for 5 minutes, and the luminescence was measured (Trilux, Perkin Elmer).

[4] = A-375, 48 h, A375-luc cells, 2 days, read-out: A375 CP IC50
[5] = A-375, as repeated in p38 table, read-out: A375 CP IC50

SMILES	IC50 [1, 4]	IC50 [1, 5]	IC50 ([1]; A-375, read-out: A375 IC50)	IC50 (p38α MAP Kinase)	ER Human [2]	ER Mouse [3]	effect on cellular proliferation (negative inhibition in FIG. 1) (SW620 cells)
CNc1nccc(-c2cn(C(C)C)nc2-c2cc(Cl)cc(NS(C)(=O)=O)c2F)n1 [Compound 29, N-(5-chloro-2-fluoro-3-{4-[2-(methylamino)pyrimidin-4-yl]-1-(propan-2-yl)-1H-pyrazol-3-yl}phenyl)methanesulfonamide]	76 nM	76 nM	76 nM	17000 nM	–	–	–
COC(=O)NC[C@H](C)Nc1nccc(-c2cn(C(C)C)nc2-c2cc(Cl)cc(NS(C)(=O)=O)c2F)n1 [Compound 32, Methyl N-[(2S)-2-({4-[3-(5-chloro-2-fluoro-3-methanesulfonamidophenyl)-1-(propan-2-yl)-1H-pyrazol-4-yl]pyrimidin-2-yl}amino)propyl]carbamate]	31 nM	31 nM	–	690 nM	–	–	–
COC(=O)N[C@@H](C)CNc1nccc(-c2cn(C(C)C)nc2-c2cc(Cl)cc(NS(C)(=O)=O)c2F)n1 [Compound 9, Methyl N-[(2S)-1-({4-[3-(5-chloro-2-fluoro-3-methanesulfonamidophenyl)-1-(propan-2-yl)-1H-pyrazol-4-yl]pyrimidin-2-yl}amino)propan-2-yl]carbamate]	2 nM	2 nM	2 nM	2200 nM	<0.21	0.48	induction in cellular proliferation
CCCS(=O)(=O)Nc1cccc(-c2nn(C(C)C)cc2-c2ccnc(NC[C@H](C)NC(=O)OC)n2)c1F [Compound 3, methyl N-[(2S)-1-[(4-{3-[2-fluoro-3-(propane-1-sulfonamido)phenyl]-1-(propan-2-yl)-1H-pyrazol-4-yl}pyrimidin-2-yl)amino]propan-2-yl]carbamate]	2 nM	–	–	–	0.69	0.85	–
CCCS(=O)(=O)Nc1cc(Cl)cc(-c2nn(C(C)C)cc2-c2ccnc(NC[C@H](C)NC(=O)OC)n2)c1F [Compound 1, Methyl N-[(2S)-1-[(4-{3-[5-chloro-2-fluoro-3-(propane-1-sulfonamido)phenyl]-1-(propan-2-yl)-1H-pyrazol-4-yl]pyrimidin-2-yl)amino]propan-2-yl]carbamate]	2 nM	–	–	–	0.66	0.79	–
